Measurements reported in patent US6730666B1, “Pharmaceutical compositions comprising porphyrins and some novel porphyrin derivatives” (Yeda Research and Development Co. Ltd., priority 1998, dated 2004).

Legend:
FGFR-1 = FGFR-1 (Mus musculus, UniProt P16092); experiment: Covalent cross-linking of 125I-bFGF to CHO cells transfected with FGFR-1; assay type: binding; set-up: expressed in transfected cells; host or cells: CHO cells deficient in heparan sulfate; conditions: FIG. 2
Experimental: Binding of ^125I-bFGF to confluent monolayers of PGFR-1 expressing CHO cells or ^125I-FGF9 to FGFR-3 expressing CHO cells, was performed as described in Methods, section (iv), in the presence or absence of P1 (Inhibitor). After 90 min, disuccinylimidyl suberate [DSS]
(§1) (iv) Binding of ^125I-bFGF and ^125I-FGF9 to cells. Confluent cultures of CHO cells expressing FGFR-1(Yayon et al, 1991) or FGFR-3 (Hecht et al, 1995) in 24-well plates (Falcon) were precooled and washed twice with cold DMEM supplemented with 20 mM Hepes (pH 7.5) and 0.1% bovine serum albumin (DMEM/BSA). They were then incubated for 1.5 h at 4° C. with ^125I-bFGF (2 ng/ml) and increasing concentrations of porphyrin/corrole compound. The binding medium was discarded and the cells were washed once with ice-cold DMEM/BSA and twice with cold PBS (pH 7.5) containing 1.6M NaCl. […] Non-specific binding was determined in the presence of a 100-fold excess of unlabeled bFGF.
In order to unequivocally determine the specificity of the binding inhibition, chemical cross-linking of ^125I-bFGF and ^125I-FGF9 to CHO cells transfected with FGFR-1 and FGFR-3, respectively, was carried out as described in Methods, section (iv), in the absence or presence of increasing concentrations of P1.

VEGF receptor KDR = biological target: T1, VEGF receptor KDR (Homo sapiens, UniProt P35968); experiment: Binding of 125I-VEGF to endothelial cells transfected with VEGF receptor KDR; set-up: species or system bovine; conditions: FIG. 10A
T1 construct: expressed in transfected cells; host or cells: bovine aortic endothelial cells
T1 sequence (P35968 20-1356): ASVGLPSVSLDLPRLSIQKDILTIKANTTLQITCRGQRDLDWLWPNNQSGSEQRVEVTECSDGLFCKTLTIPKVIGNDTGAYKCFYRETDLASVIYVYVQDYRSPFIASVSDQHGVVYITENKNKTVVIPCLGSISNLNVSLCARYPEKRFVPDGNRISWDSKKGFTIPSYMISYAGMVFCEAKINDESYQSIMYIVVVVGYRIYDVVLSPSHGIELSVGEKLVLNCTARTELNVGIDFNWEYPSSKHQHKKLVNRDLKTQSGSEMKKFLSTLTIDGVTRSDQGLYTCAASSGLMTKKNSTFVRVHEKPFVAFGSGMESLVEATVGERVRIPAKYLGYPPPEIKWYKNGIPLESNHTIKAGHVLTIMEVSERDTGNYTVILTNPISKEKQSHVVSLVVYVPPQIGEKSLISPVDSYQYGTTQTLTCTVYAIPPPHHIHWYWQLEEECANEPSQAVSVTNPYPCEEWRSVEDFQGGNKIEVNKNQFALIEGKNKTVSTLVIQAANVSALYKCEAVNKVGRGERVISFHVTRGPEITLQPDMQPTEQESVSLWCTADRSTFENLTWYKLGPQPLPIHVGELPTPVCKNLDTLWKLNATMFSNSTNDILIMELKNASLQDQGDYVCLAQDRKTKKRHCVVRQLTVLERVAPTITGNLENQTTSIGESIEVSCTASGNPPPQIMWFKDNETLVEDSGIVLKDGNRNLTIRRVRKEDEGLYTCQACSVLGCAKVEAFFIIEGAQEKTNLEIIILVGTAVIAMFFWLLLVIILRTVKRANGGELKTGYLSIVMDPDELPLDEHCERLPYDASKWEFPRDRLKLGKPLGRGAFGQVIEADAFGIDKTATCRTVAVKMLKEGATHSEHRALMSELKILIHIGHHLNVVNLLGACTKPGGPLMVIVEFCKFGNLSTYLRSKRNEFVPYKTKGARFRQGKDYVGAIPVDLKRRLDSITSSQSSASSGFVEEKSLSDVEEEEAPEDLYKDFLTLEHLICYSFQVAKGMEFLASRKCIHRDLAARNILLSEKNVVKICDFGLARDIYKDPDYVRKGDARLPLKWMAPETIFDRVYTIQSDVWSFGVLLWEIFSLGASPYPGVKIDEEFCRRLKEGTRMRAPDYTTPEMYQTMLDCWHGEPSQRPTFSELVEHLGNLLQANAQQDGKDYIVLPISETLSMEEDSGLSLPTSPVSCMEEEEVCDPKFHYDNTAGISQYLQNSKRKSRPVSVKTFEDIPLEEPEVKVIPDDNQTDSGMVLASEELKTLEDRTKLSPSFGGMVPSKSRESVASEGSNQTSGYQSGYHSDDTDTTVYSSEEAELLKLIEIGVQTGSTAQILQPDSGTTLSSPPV
Experimental: Binding of ^125I-VEGF to confluent monolayers of endothelial cells expressing KDR was performed as described in Methods, section (x), in the presence of increasing concentrations of P1 and of unlabeled VEGF; and
x) Binding of ^125I-VEGF to cells. Confluent cultures of bovine aortic endothelial cells transfected with the VEGF receptor KDR were tested for binding of radiolabeled ^125I-VEGF as described in method (iv) above for the FGFR-1 expressing cells.

smooth muscle cells = experiment: Smooth muscle cell proliferation induced by bFGF; assay type: cell-based; conditions: 2 μg/ml or 20 μg/ml of P1; bFGF 10 ng/ml; FIG. 16
Experimental: In order to determine the ability of P1 to inhibit the biological activity of bFGF on cell proliferation, smooth muscle cells were grown in 24-well plates in the presence of bFGF (10 ng/ml) and in the presence of 2 μg/ml or 20 μg/ml of P1. Cell number was determined daily by counting cell samples under a microscope.

[1] = tested on: Lewis lung carcinoma (LLC) D122 cells; experiment: Lewis lung carcinoma primary tumor growth (foot pad); assay type: in vivo, C57 black mice; conditions: 25 μg/g of body mass IP twice a week
Experimental: (vii) Lewis lung carcinoma tumor assay. Murine Lewis lung carcinoma (LLC) D122 cells (1×10^6 cells/[…] PBS) were injected into the foot pads of 10-week old C57 black mice (O'Reilly et al, 1994). Twenty five μg/g of body mass of porphyrin or corrole compound dissolved in PBS were injected IP twice a week to the treated group, and tumor size was measured periodically in order to follow primary tumor formation. In order to evaluate inhibition of lung metastasis by porphyrin or corrole compound, the primary tumors were allowed to develop over a period of six weeks to a volume of approximately 8 mm^3; after which the tumors were removed and metastases were allowed to develop for four weeks. During this time the treated group received 25 μg/g of body mass of porphyrin or corrole compound IP twice a week. Subsequently the mice were sacrificed, dissected and the lungs removed and photographed. The extent of lung metastasis was measured by weighing the lungs.
Inhibition of primary tumor growth was tested using the well-established LLC murine tumor growth and metastasis model (Methods, section (vii)). LLC D122 cells (200,000 cells per mouse) were injected into the foot pads of 10-week old C57 black mice. […] The inhibition of the foot pad primary carcinoma tumor growth was statistically established and reproducible in five experiments.

FGFR-3 [2] = biological target: T2, FGFR-3 (Homo sapiens, UniProt P22607); experiment: Binding of 125I-FGF9 to immobilized soluble FGFR-3 (FR-3-AP); conditions: FIG. 11
T2 construct: soluble FGFR-3 ectodomain alkaline phosphatase fusion protein (FR-3-AP); made in house; host or cells: NIH 3T3 cells (conditioned medium)
T2 sequence (P22607 23-375 limits assumed): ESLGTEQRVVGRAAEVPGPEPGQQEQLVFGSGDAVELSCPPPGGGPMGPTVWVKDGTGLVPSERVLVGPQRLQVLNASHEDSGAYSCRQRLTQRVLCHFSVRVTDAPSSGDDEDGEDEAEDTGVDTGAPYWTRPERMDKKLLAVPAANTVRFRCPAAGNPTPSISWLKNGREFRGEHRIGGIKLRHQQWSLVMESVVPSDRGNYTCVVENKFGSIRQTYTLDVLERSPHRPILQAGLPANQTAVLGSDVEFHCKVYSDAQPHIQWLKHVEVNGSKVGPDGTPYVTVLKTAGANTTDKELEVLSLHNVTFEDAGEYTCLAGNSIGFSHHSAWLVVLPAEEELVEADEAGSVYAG
Experimental: Incubations were performed in the presence of 100 ng/ml heparin and increasing concentrations of porphyrins. […] Results represent the mean value in one of at least two independent experiments.
(iii) Binding of ^125I-bFGF or ^125I-FGF9 to s luble FGFR-1 or FGFR-3. Conditioned medium from NIH 3T3 cells secreting soluble FRAP or FGFR-3 FR-3-AP, was incubated for 45 min at room temperature with rabbit anti-human placental AP antibodies (generated as described in Ornitz et al, 1991) prebound to agarose-protein A beads Pierce). The FGFR-1 or FGFR-3-coupled beads were washed three times with 1 ml HNTG and incubated with 2 ng/ml of ^125I-FGF, 1 μg/ml of heparin and porphyrin/corrole compound at different concentrations for 1 h at room temperature. High affinity-bound ^125I-bFGF was determined by counting of the samples in a γ-counter.
Thus, the compounds were tested for their capacity to inhibit binding of a soluble FGFR-3 ectodomain alkaline phosphatase fusion protein (FR-3-AP) to FGF-9, utilizing a cell free system, similar to the one described for FGFR-1 in Example 1 above, and measuring the binding of radiolabeled ^125I-FGF-9 to soluble FGFR-3.

FGFR-3 [3] = biological target: T3, FGFR-3 (Homo sapiens, UniProt P22607); experiment: Binding of 125I-FGF9 to CHO cells transfected with FGFR-3; conditions: FIG. 12
T3 construct: expressed in transfected cells; host or cells: CHO cells (mutant 745)
Experimental: CHO mutant cells-745 expressing FGFR-3 were incubated for 90 min at 4° C. in the presence of increasing concentrations of the porphyrins, with 1 μg/ml of heparin and ^125I-FGF9 (2 ng/ml). The binding medium was discarded and the cells were washed with ice cold DMEM/BSA. To determine receptor binding of ^125I-FGF9, the cells were incubated in cold PBS (pH 4) containing 1.6M NaCl and 25 mM HEPES, and the cell extract was counted in a γ-counter.
as §1
T3 sequence (P22607 23-806, species assumed): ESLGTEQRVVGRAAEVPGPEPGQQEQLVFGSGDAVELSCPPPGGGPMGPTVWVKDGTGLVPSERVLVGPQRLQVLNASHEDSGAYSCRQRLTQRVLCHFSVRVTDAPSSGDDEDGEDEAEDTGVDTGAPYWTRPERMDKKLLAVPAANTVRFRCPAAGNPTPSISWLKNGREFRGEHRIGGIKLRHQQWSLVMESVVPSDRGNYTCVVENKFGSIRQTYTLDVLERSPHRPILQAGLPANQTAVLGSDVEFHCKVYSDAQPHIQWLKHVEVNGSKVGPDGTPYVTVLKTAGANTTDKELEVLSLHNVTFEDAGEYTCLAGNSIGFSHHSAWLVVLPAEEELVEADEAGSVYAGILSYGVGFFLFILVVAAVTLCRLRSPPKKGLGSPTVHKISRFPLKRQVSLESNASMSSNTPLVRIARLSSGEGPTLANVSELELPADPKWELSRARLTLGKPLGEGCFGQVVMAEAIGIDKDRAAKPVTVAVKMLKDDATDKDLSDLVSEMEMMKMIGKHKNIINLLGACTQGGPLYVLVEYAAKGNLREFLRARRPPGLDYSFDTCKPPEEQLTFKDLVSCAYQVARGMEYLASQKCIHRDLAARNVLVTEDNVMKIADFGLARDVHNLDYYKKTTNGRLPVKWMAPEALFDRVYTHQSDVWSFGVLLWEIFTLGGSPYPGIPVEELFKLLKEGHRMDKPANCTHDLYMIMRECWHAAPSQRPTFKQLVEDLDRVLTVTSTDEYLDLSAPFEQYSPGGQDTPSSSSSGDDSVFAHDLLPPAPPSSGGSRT

Chain of FGFR-1 (P16092 22-822): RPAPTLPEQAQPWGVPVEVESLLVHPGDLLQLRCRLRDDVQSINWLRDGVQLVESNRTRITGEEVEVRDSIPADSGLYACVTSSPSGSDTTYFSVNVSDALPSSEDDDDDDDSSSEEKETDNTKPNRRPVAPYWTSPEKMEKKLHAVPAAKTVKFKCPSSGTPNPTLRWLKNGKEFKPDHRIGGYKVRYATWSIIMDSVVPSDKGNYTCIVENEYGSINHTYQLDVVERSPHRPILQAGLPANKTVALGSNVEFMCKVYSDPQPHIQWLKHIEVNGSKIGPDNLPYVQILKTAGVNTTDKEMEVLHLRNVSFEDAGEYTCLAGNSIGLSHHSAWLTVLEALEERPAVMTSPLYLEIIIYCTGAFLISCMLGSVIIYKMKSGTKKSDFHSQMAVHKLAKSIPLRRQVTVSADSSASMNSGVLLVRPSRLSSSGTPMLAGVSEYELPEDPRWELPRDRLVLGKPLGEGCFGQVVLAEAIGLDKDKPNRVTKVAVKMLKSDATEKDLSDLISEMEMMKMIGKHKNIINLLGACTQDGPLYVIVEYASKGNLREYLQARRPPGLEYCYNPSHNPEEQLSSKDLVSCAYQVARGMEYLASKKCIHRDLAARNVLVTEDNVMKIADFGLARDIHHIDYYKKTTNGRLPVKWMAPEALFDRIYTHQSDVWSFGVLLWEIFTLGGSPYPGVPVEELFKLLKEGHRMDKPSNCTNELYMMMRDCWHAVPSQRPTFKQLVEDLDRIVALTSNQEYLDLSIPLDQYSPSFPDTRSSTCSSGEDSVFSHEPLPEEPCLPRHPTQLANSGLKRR

Structure (SMILES) | Inhibition of bFGF-receptor complex formation (cross-linking), in words (FGFR-1) | Inhibition of 125I-VEGF binding to KDR/flk-1 expressing cells, in words (VEGF receptor KDR) | Effect on smooth muscle cell proliferation induced by bFGF (smooth muscle cells) | Inhibition of primary tumor growth in LLC model, in words [1] | Relative potency in FGF-9/FGFR-3 soluble receptor assay, in words (FGFR-3 [2]) | IC50, FGF-9 binding in the cellular receptor system (FGFR-3 [3]) [µg/mL]
C[n+]1ccc(-c2c3nc(c(-c4cc[n+](C)cc4)c4ccc([nH]4)c(-c4cc[n+](C)cc4)c4nc(c(-c5cc[n+](C)cc5)c5ccc2[nH]5)C=C4)C=C3)cc1 [Compound P1, 5,10,15,20-Tetrakis(N-methyl-4-pyridylium)-21H,23H-porphine tetra-p-tosylate] | inhibition of formation of a typical bFGF-receptor complex | efficiently inhibits | strong inhibitory effect | marked inhibition in primary tumor growth | – | –
C[n+]1ccc(-c2c3nc(c(-c4cc[n+](C)cc4)c4ccc([nH]4)c(-c4c(F)c(F)c(F)c(F)c4F)c4nc(c(-c5cc[n+](C)cc5)c5ccc2[nH]5)C=C4)C=C3)cc1.[I-].[I-].[I-] [Compound P16, 5-Pentafluorophenyl-10,15,20-tris(N-methyl-4-pyridylium)-21H,23H-porphine triiodide] | – | – | – | – | more potent | 0.1
